System: patients with advanced solid tumors
Experiment: Safety and tolerability (adverse events, NCI CTCAE v4.03), phase I dose-escalation study
Assay type: in vivo, human
From the text: This was a phase I, open-label, dose-escalation study of single-agent TAK-931. Dose escalation of TAK-931 was cohort based with an adaptive design using Bayesian logistic regression modeling (BLRM) with pharmacokinetic guidance. BLRM also guided MTD estimation from the second dose. Patients were enrolled in one of four dosing schedules (A, B, D, or E; Supplementary Fig. S1) to receive TAK-931. Two additional schedules were planned (C and F) but no patients were enrolled. Schedule A included an initial accelerated escalation phase. TAK-931 was administered once daily for 14 days in 21-day cycles starting at 30 mg, which doubled until a cycle 1 dose-limiting toxicity (DLT) was observed, when 2 patients experienced grade ≥2 treatment-related toxicity, or when maximum geometric mean plasma concentration (Cmax) for the cohort reached or exceeded 800 ng/mL [threshold for off-target adverse effects (hypotension) in animal toxicology studies]; then dose escalation transitioned to modified Fibonacci escalation steps. In schedule B (based on experience with schedule A), patients received TAK-931 once daily or twice daily for 7 days on, 7 days off in a 28-day cycle starting at 60 mg. In schedule D, patients received TAK-931 once daily starting at 20 mg in 21-day cycles; BLRM was not applied but further adjustments were dependent on observed safety, pharmacokinetics, and pharmacodynamics. In schedule E, patients received TAK-931 once daily for 2 days on, 5 days off starting at 100 mg in 21-day cycles. A safety expansion was permitted once MTD had been determined. Prophylactic growth factors were permitted in all schedules to manage severe and/or febrile neutropenia. TAK-931 treatment continued until unacceptable toxicity, disease progression, or patient withdrawal.
DLTs included: cycle 1 grade ≥3 hematologic and non-hematologic events or grade 2 non-hematologic events considered by the investigator to be TAK-931-related, grade 2 ejection fraction decrease, >2 weeks delay in initiating cycle 2 (1 week for schedules D and E), and >50% TAK-931 dose reduction in cycle 1 due to treatment-related adverse events (AEs; see Supplementary Materials and Methods for full DLT criteria). Toxicity was evaluated by NCI Common Terminology Criteria for Adverse Events (version 4.03). Tumor response was measured using the RECIST (version 1.1) ([16]). Serial blood samples for pharmacokinetic analysis were collected during cycle 1 on days 1 and 7 (schedule B), 1 and 8 (schedules A and D), or 1 and 9 (schedule E). Pharmacokinetic parameters were estimated from concentration–time profiles using noncompartmental methods with WinNonlin® Phoenix™ version 8.1 (Certara, Princeton, NJ). pMCM2 was detected semiquantitatively by IHC of histologic sections of formalin-fixed, paraffin-embedded skin and tumor biopsies using anti-pMCM2 (3378-1, Epitomics Inc.; ref. [15]). Quantitative image analysis determined pMCM2 levels as “histologic score nuclei (H-score).” Skin punch biopsies (2–4 mm) were obtained during screening or predose on cycle 1, day 1 and for patients in schedules A, B, and D, postdose on any drug dosing day after 3 consecutive dosing days in cycle 1. A postdose skin biopsy was obtained on day 9 in schedule E. Fresh tumor biopsy pairs were collected predose and postdose on any dosing day after the completion of 3 consecutive dosing days in cycle 1 from patients who received doses considered to have biological effect.
The safety population included patients who received ≥1 dose of TAK-931. The pharmacodynamic-evaluable population comprised patients from the safety population with a baseline and ≥1 additional postbaseline biopsy sample that was suitable for pMCM2 analysis. The pharmacokinetic-evaluable population included patients with sufficient dosing and TAK-931 concentration–time data to estimate pharmacokinetic parameters. […]

[1] = Schedule A (once daily 14 days, 21-day cycles) n = 25
[2] = Schedule B (7 days on, 7 days off, 28-day cycles) n = 24
[3] = Schedule D (continuous once daily) n = 18

`Cc1[nH]ncc1-c1cc2nc([C@@H]3CC4CCN3CC4)[nH]c(=O)c2s1` [TAK-931, simurosertib] was tested, and the “Abdominal pain, AE any grade” value [1] was 2 (8) n (%), the “Alopecia, AE any grade” value [1] was 6 (24) n (%) and the “Anemia, AE any grade” value [1] was 6 (24) n (%). For the same molecule, the “Anemia, grade ≥3 AE” value [1] was 1 (4) n %, the “Arthralgia, AE any grade” value [1] was 3 (12) n (%) and the “Blood creatinine increased, AE any grade” value [1] was 3 (12) n (%). The “Constipation, AE any grade” value [1] was 2 (8) n (%), the “Cough, AE any grade” value [1] was 3 (12) n (%) and the “Decreased appetite, AE any grade” value [1] was 7 (28) n (%). For the same molecule, the “Decreased appetite, grade ≥3 AE” value [1] was 2 (8) n %, the “Diarrhea, AE any grade” value [1] was 7 (28) n (%) and the “Dry skin, AE any grade” value [1] was 1 (4) n (%). The “Edema peripheral, AE any grade” value [1] was 4 (16) n (%), the “Electrocardiogram QT prolonged, AE any grade” value (from here on “Electrocardiogram QT prolonged”) [1] was 3 (12) n (%) and the “Fall, AE any grade” value [1] was 0 (0) n (%). The “Fatigue, AE any grade” value [1] was 2 (8) n (%), the “Febrile neutropenia, AE any grade” value [1] was 1 (4) n (%) and the “Febrile neutropenia, grade ≥3 AE” value [1] was 1 (4) n %. For the same molecule, the “Gamma-glutamyltransferase increased, AE any grade” value [1] was 0 (0) n (%), the “Gamma-glutamyltransferase increased, grade ≥3 AE” value [1] was 0 (0) n % and the “Hypoalbuminemia, AE any grade” value [1] was 4 (16) n (%). The “Hypoalbuminemia, grade ≥3 AE” value [1] was 0 (0) n %, the “Hypophosphatemia, grade ≥3 AE” value [1] was 1 (4) n % and the “Hypotension, AE any grade” value [1] was 2 (8) n (%). For the same molecule, the “Leukopenia, AE any grade” value [1] was 5 (20) n (%), the “Leukopenia, grade ≥3 AE” value [1] was 5 (20) n % and the “Lymphocyte count decreased, AE any grade” value [1] was 3 (12) n (%). For the same molecule, the “Lymphocyte count decreased, grade ≥3 AE” value [1] was 1 (4) n %, the “Lymphopenia, AE any grade” value [1] was 2 (8) n (%) and the “Malaise, AE any grade” value [1] was 5 (20) n (%). For the same molecule, the “Nasopharyngitis, AE any grade” value [1] was 2 (8) n (%), the “Nausea, AE any grade” value [1] was 15 (60) n (%) and the “Neutropenia, AE any grade” value [1] was 12 (48) n (%). For the same molecule, the “Neutropenia, grade ≥3 AE” value [1] was 11 (44) n %, the “Orthostatic hypotension, AE any grade” value [1] was 0 (0) n (%) and the “Platelet count decreased, AE any grade” value [1] was 2 (8) n (%). The “Pruritus, AE any grade” value [1] was 0 (0) n (%), the “Pyrexia, AE any grade” value [1] was 5 (20) n (%) and the “Rash popular, AE any grade” value [1] was 0 (0) n (%). The “Stomatitis, AE any grade” value [1] was 0 (0) n (%), the “Thrombocytopenia, AE any grade” value [1] was 1 (4) n (%) and the “Tumor pain, AE any grade” value [1] was 3 (12) n (%). The “Vomiting, AE any grade” value [1] was 7 (28) n (%), the “White blood cell count decreased, AE any grade” value [1] was 8 (32) n (%) and the “White blood cell count decreased, grade ≥3 AE” value [1] was 3 (12) n %. The “Abdominal pain, AE any grade” value [2] was 3 (13) n (%), the “Alopecia, AE any grade” value [2] was 13 (54) n (%) and the “Anemia, AE any grade” value [2] was 4 (17) n (%). The “Anemia, grade ≥3 AE” value [2] was 3 (13) n %, the “Arthralgia, AE any grade” value [2] was 1 (4) n (%) and the “Blood creatinine increased, AE any grade” value [2] was 3 (13) n (%). The “Constipation, AE any grade” value [2] was 5 (21) n (%), the “Cough, AE any grade” value [2] was 0 (0) n (%) and the “Decreased appetite, AE any grade” value [2] was 5 (21) n (%). For the same molecule, the “Decreased appetite, grade ≥3 AE” value [2] was 0 (0) n %, the “Diarrhea, AE any grade” value [2] was 4 (17) n (%) and the “Dry skin, AE any grade” value [2] was 1 (4) n (%). The “Edema peripheral, AE any grade” value [2] was 1 (4) n (%), the “Electrocardiogram QT prolonged” value [2] was 0 (0) n (%) and the “Fall, AE any grade” value [2] was 1 (4) n (%). For the same molecule, the “Fatigue, AE any grade” value [2] was 5 (21) n (%), the “Febrile neutropenia, AE any grade” value [2] was 3 (13) n (%) and the “Febrile neutropenia, grade ≥3 AE” value [2] was 3 (13) n %. For the same molecule, the “Gamma-glutamyltransferase increased, AE any grade” value [2] was 3 (13) n (%), the “Gamma-glutamyltransferase increased, grade ≥3 AE” value [2] was 2 (8) n % and the “Hypoalbuminemia, AE any grade” value [2] was 2 (8) n (%). For the same molecule, the “Hypoalbuminemia, grade ≥3 AE” value [2] was 2 (8) n %, the “Hypophosphatemia, grade ≥3 AE” value [2] was 1 (4) n % and the “Hypotension, AE any grade” value [2] was 4 (17) n (%). The “Leukopenia, AE any grade” value [2] was 13 (54) n (%), the “Leukopenia, grade ≥3 AE” value [2] was 6 (25) n % and the “Lymphocyte count decreased, AE any grade” value [2] was 0 (0) n (%). For the same molecule, the “Lymphocyte count decreased, grade ≥3 AE” value [2] was 0 (0) n %, the “Lymphopenia, AE any grade” value [2] was 3 (13) n (%) and the “Malaise, AE any grade” value [2] was 1 (4) n (%). For the same molecule, the “Nasopharyngitis, AE any grade” value [2] was 3 (13) n (%), the “Nausea, AE any grade” value [2] was 21 (88) n (%) and the “Neutropenia, AE any grade” value [2] was 19 (79) n (%). The “Neutropenia, grade ≥3 AE” value [2] was 15 (63) n %, the “Orthostatic hypotension, AE any grade” value [2] was 1 (4) n (%) and the “Platelet count decreased, AE any grade” value [2] was 1 (4) n (%). For the same molecule, the “Pruritus, AE any grade” value [2] was 3 (13) n (%), the “Pyrexia, AE any grade” value [2] was 1 (4) n (%) and the “Rash popular, AE any grade” value [2] was 3 (13) n (%). For the same molecule, the “Stomatitis, AE any grade” value [2] was 6 (25) n (%), the “Thrombocytopenia, AE any grade” value [2] was 4 (17) n (%) and the “Tumor pain, AE any grade” value [2] was 1 (4) n (%). The “Vomiting, AE any grade” value [2] was 13 (54) n (%), the “White blood cell count decreased, AE any grade” value [2] was 5 (21) n (%) and the “White blood cell count decreased, grade ≥3 AE” value [2] was 3 (13) n %. For the same molecule, the “Abdominal pain, AE any grade” value [3] was 0 (0) n (%), the “Alopecia, AE any grade” value [3] was 3 (17) n (%) and the “Anemia, AE any grade” value [3] was 3 (17) n (%). The “Anemia, grade ≥3 AE” value [3] was 1 (6) n %, the “Arthralgia, AE any grade” value [3] was 1 (6) n (%) and the “Blood creatinine increased, AE any grade” value [3] was 1 (6) n (%). For the same molecule, the “Constipation, AE any grade” value [3] was 2 (11) n (%), the “Cough, AE any grade” value [3] was 0 (0) n (%) and the “Decreased appetite, AE any grade” value [3] was 6 (33) n (%). The “Decreased appetite, grade ≥3 AE” value [3] was 1 (6) n %, the “Diarrhea, AE any grade” value [3] was 1 (6) n (%) and the “Dry skin, AE any grade” value [3] was 1 (6) n (%). For the same molecule, the “Edema peripheral, AE any grade” value [3] was 2 (11) n (%), the “Electrocardiogram QT prolonged” value [3] was 0 (0) n (%) and the “Fall, AE any grade” value [3] was 1 (6) n (%). The “Fatigue, AE any grade” value [3] was 3 (17) n (%), the “Febrile neutropenia, AE any grade” value [3] was 0 (0) n (%) and the “Febrile neutropenia, grade ≥3 AE” value [3] was 0 (0) n %. The “Gamma-glutamyltransferase increased, AE any grade” value [3] was 0 (0) n (%), the “Gamma-glutamyltransferase increased, grade ≥3 AE” value [3] was 0 (0) n % and the “Hypoalbuminemia, AE any grade” value [3] was 0 (0) n (%). The “Hypoalbuminemia, grade ≥3 AE” value [3] was 0 (0) n %, the “Hypophosphatemia, grade ≥3 AE” value [3] was 0 (0) n % and the “Hypotension, AE any grade” value [3] was 0 (0) n (%). The “Leukopenia, AE any grade” value [3] was 0 (0) n (%), the “Leukopenia, grade ≥3 AE” value [3] was 0 (0) n % and the “Lymphocyte count decreased, AE any grade” value [3] was 0 (0) n (%). For the same molecule, the “Lymphocyte count decreased, grade ≥3 AE” value [3] was 0 (0) n %, the “Lymphopenia, AE any grade” value [3] was 0 (0) n (%) and the “Malaise, AE any grade” value [3] was 3 (17) n (%). The “Nasopharyngitis, AE any grade” value [3] was 1 (6) n (%), the “Nausea, AE any grade” value [3] was 5 (28) n (%) and the “Neutropenia, AE any grade” value [3] was 6 (33) n (%). For the same molecule, the “Neutropenia, grade ≥3 AE” value [3] was 3 (17) n %, the “Orthostatic hypotension, AE any grade” value [3] was 0 (0) n (%) and the “Platelet count decreased, AE any grade” value [3] was 2 (11) n (%). For the same molecule, the “Pruritus, AE any grade” value [3] was 1 (6) n (%) and the “Pyrexia, AE any grade” value [3] was 2 (11) n (%).
